From patent publication US9914730B2, “Azaquinazoline inhibitors of Atypical protein Kinase C” (Ignyta, Inc., priority 2012, dated 2018)

Biological target: T1, full-length human PKCι (Homo sapiens, UniProt P41743)
T1 construct: Recombinant, full-length human PKCι expressed in Sf21 insect cells is also commercially available; purchased; host or cells: Sf21 insect cells
T1 sequence (P41743 1-596): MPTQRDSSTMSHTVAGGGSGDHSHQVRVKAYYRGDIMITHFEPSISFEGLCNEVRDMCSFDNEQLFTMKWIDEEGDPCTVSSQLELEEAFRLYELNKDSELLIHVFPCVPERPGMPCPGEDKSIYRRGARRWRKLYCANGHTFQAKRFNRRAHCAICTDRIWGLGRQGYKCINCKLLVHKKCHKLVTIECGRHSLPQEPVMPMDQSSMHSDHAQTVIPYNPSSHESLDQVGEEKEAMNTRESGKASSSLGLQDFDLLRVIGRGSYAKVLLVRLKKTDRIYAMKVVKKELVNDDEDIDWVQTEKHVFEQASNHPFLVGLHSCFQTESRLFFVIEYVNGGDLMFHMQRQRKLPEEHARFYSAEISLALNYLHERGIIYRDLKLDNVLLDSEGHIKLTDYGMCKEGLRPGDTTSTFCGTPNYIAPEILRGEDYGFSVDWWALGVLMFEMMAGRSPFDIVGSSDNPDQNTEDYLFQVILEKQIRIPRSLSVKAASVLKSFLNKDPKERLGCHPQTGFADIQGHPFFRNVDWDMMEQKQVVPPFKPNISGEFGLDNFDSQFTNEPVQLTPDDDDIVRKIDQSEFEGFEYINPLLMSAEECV
Experiment: PKCι IC50 IMAP assay, full-length PKCι at 150 μM ATP
Assay type: biochemical
Conditions: read-out: IC50 in IMAP assay against full length PKCi at 150 μM ATP
Method in brief: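 Dose-response IC50 values come from IMAP fluorescence polarisation after 60 min room-temperature turnover of 100 nM FAM peptide by ~15 pM insect-cell-expressed full-length PKCι at 150 μM ATP (5× KM^APP), normalised to no-compound and no-enzyme controls.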

Row | Structure (SMILES) | IC50
1 | c1ccc(Nc2cc(-c3nc(N4CCNCC4)c4c(C5CC5)cncc4n3)ccn2)nc1 [Example 750, [4-(5-Cyclopropyl-4-piperazin-1-yl-pyrido[3,4-d]pyrimidin-2-yl)-pyridin-2-yl]-pyridin-2-yl-amine] | < 100 nM
2 | Fc1ccnc(Nc2cc(-c3nc(N4CCNCC4)c4c(C5CC5)cncc4n3)ccn2)c1 [Example 756, [4-(5-Cyclopropyl-4-piperazin-1-yl-pyrido[3,4-d]pyrimidin-2-yl)-pyridin-2-yl]-(4-fluoro-pyridin-2-yl)-amine] | < 100 nM
3 | Fc1cccc(F)c1Nc1cc(-c2nc(OC3CCNCC3)c3c(C4CC4)cncc3n2)ccn1 [Example 757, {4-[5-Cyclopropyl-4-(piperidin-4-yloxy)-pyrido[3,4-d]pyrimidin-2-yl]-pyridin-2-yl}-(2,6-difluoro-phenyl)-amine] | 100 to 1000 nM
4 | Cn1cc(CNc2cc(-c3nc(N4CCNCC4)c4c(C5CC5)cncc4n3)ccn2)cn1 [Example 758, [4-(5-Cyclopropyl-4-piperazin-1-yl-pyrido[3,4-d]pyrimidin-2-yl)-pyridin-2-yl]-(1-methyl-1H-pyrazol-4-ylmethyl)-amine] | < 100 nM
5 | CN1CCN(c2cccc(Nc3cc(-c4nc(N5CCCC5)c5c(C6CC6)cncc5n4)ccn3)c2)CC1 [Example 760, [4-(5-Cyclopropyl-4-pyrrolidin-1-yl-pyrido[3,4-d]pyrimidin-2-yl)-pyridin-2-yl]-[3-(4-methyl-piperazin-1-yl)-phenyl]-amine] | 100 to 1000 nM
6 | CN1CCN(c2cccc(Nc3cc(-c4nc(N5CCC5)c5c(C6CC6)cncc5n4)ccn3)c2)CC1 [Example 761, [4-(4-Azetidin-1-yl-5-cyclopropyl-pyrido[3,4-d]pyrimidin-2-yl)-pyridin-2-yl]-[3-(4-methyl-piperazin-1-yl)-phenyl]-amine] | 100 to 1000 nM
7 | COc1ccc(F)c(Nc2cc(-c3nc(N4CCNCC4)c4c(C5CC5)cncc4n3)ccn2)n1 [Example 762, [4-(5-Cyclopropyl-4-piperazin-1-yl-pyrido[3,4-d]pyrimidin-2-yl)-pyridin-2-yl]-(3-fluoro-6-methoxy-pyridin-2-yl)-amine] | < 100 nM
8 | CC1CN(c2nc(-c3ccnc(Nc4nc(F)ccc4F)c3)nc3cncc(C4CC4)c23)CC(C)N1 (stereo not shown) [Example 763, {4-[5-Cyclopropyl-4-(3,5-dimethyl-piperazin-1-yl)-pyrido[3,4-d]pyrimidin-2-yl]-pyridin-2-yl}-(3,6-difluoro-pyridin-2-yl)-amine] | < 100 nM
9 | Fc1cnc(Nc2c(F)cccc2F)cc1-c1nc(N2CCNCC2)c2c(C3CC3)cncc2n1 [Example 764, [4-(5-Cyclopropyl-4-piperazin-1-yl-pyrido[3,4-d]pyrimidin-2-yl)-5-fluoro-pyridin-2-yl]-(2,6-difluoro-phenyl)-amine] | < 100 nM
10 | Fc1ccc(Nc2cc(-c3nc(N4CCNCC4)c4c(C5CC5)cncc4n3)c(F)cn2)cc1 [Example 765, [4-(5-Cyclopropyl-4-piperazin-1-yl-pyrido[3,4-d]pyrimidin-2-yl)-5-fluoro-pyridin-2-yl]-(4-fluoro-phenyl)-amine] | < 100 nM
11 | c1cc(Nc2cc(-c3nc(N4CCCC4)c4c(C5CC5)cncc4n3)ccn2)cc(N2CCNCC2)c1 [Example 766, [4-(5-Cyclopropyl-4-pyrrolidin-1-yl-pyrido[3,4-d]pyrimidin-2-yl)-pyridin-2-yl]-(3-piperazin-1-yl-phenyl)-amine] | 100 to 1000 nM
12 | c1cc(Nc2cc(-c3nc(N4CCC4)c4c(C5CC5)cncc4n3)ccn2)cc(N2CCNCC2)c1 [Example 767, [4-(4-Azetidin-1-yl-5-cyclopropyl-pyrido[3,4-d]pyrimidin-2-yl)-pyridin-2-yl]-(3-piperazin-1-yl-phenyl)-amine] | 100 to 1000 nM
13 | CC(=O)Nc1cc(-c2nc(N3CCN[C@@H](COCc4ccccc4)C3)c3c(C4CC4)cncc3n2)ccn1 [Example 768, N-{4-[4-((R)-3-Benzyloxymethyl-piperazin-1-yl)-5-cyclopropyl-pyrido[3,4-d]pyrimidin-2-yl]-pyridin-2-yl}-acetamide] | < 100 nM
14 | CS(=O)(=O)C[C@H]1CN(c2nc(-c3ccnc(Nc4ccccc4)c3)nc3cncc(C4CC4)c23)CCN1 [Example 769, {4-[5-Cyclopropyl-4-((R)-3-methanesulfonyl-methyl-piperazin-1-yl)-pyrido[3,4-d]pyrimidin-2-yl]-pyridin-2-yl}-phenyl-amine] | < 100 nM

Now from value to molecule:

Row | IC50 | Structure (SMILES)
15 | 100 to 1000 nM | CC(=O)Nc1cc(-c2nc(N3CCN[C@@H](CS(C)(=O)=O)C3)c3c(C4CC4)cncc3n2)ccn1 [Example 770, N-{4-[5-Cyclopropyl-4-((R)-3-methanesulfonyl-methyl-piperazin-1-yl)-pyrido[3,4-d]pyrimidin-2-yl]-pyridin-2-yl}-acetamide]
16 | 1000 to 10000 nM | CS(=O)(=O)C[C@H]1CN(c2nc(-c3ccnc(Nc4ccc(F)cc4)c3)nc3cncc(C4CC4)c23)CCN1 [Example 771, {4-[5-Cyclopropyl-4-((R)-3-methanesulfonyl-methyl-piperazin-1-yl)-pyrido[3,4-d]pyrimidin-2-yl]-pyridin-2-yl}-(4-fluoro-phenyl)-amine]
17 | 100 to 1000 nM | CS(=O)(=O)C[C@H]1CN(c2nc(-c3ccnc(Nc4c(F)cccc4F)c3)nc3cncc(C4CC4)c23)CCN1 [Example 772, {4-[5-Cyclopropyl-4-((R)-3-methanesulfonyl-methyl-piperazin-1-yl)-pyrido[3,4-d]pyrimidin-2-yl]-pyridin-2-yl}-(2,6-difluoro-phenyl)-amine]
18 | 100 to 1000 nM | CS(=O)(=O)C[C@H]1CN(c2nc(-c3ccnc(NC(=O)C4CC4)c3)nc3cncc(C4CC4)c23)CCN1 [Example 773, Cyclopropanecar-boxylic acid {4-[5-cyclopropyl-4-((R)-3-methanesulfonyl-methyl-piperazin-1-yl)-pyrido[3,4-d]pyrimidin-2-yl]-pyridin-2-yl}-amide]
19 | < 100 nM | Fc1cc(F)c(F)c(Nc2cc(-c3nc(N4CCNCC4)c4c(C5CC5)cncc4n3)ccn2)n1 [Example 774, [4-(5-Cyclopropyl-4-piperazin-1-yl-pyrido[3,4-d]pyrimidin-2-yl)-pyridin-2-yl]-(3,4,6-trifluoro-pyridin-2-yl)-amine]
20 | < 100 nM | CNCCNc1nc(-c2ccnc(Nc3c(F)cccc3F)c2)nc2cncc(C3CC3)c12 [Example 775, N-{5-Cyclopropyl-2-[2-(2,6-difluoro-phenylamino)-pyridin-4-yl]-pyrido[3,4-d]pyrimidin-4-yl}-N′-methyl-ethane-1,2-diamine]
21 | 100 to 1000 nM | CN(C)CCNc1nc(-c2ccnc(Nc3c(F)cccc3F)c2)nc2cncc(C3CC3)c12 [Example 776, N-{5-Cyclopropyl-2-[2-(2,6-difluoro-phenylamino)-pyridin-4-yl]-pyrido[3,4-d]pyrimidin-4-yl}-N′,N′-dimethyl-ethane-1,2-diamine]
22 | 100 to 1000 nM | CN1CCN(c2cccc(Nc3cc(-c4nc(N5CC(O)C5)c5c(C6CC6)cncc5n4)ccn3)c2)CC1 [Example 777, 1-(5-Cyclopropyl-2-{2-[3-(4-methyl-piperazin-1-yl)-phenylamino]-pyridin-4-yl}-pyrido[3,4-d]pyrimidin-4-yl)-azetidin-3-ol]
23 | < 100 nM | OC1CN(c2nc(-c3ccnc(Nc4cccc(N5CCNCC5)c4)c3)nc3cncc(C4CC4)c23)C1 [Example 778, 1-{5-Cyclopropyl-2-[2-(3-piperazin-1-yl-phenylamino)-pyridin-4-yl]-pyrido[3,4-d]pyrimidin-4-yl}-azetidin-3-ol]
24 | < 100 nM | CC(C)n1ccc(Nc2cc(-c3nc(N4CCNCC4)c4c(C5CC5)cncc4n3)ccn2)n1 [Example 779, [4-(5-Cyclopropyl-4-piperazin-1-yl-pyrido[3,4-d]pyrimidin-2-yl)-pyridin-2-yl]-(1-isopropyl-1H-pyrazol-3-yl)-amine]
25 | < 100 nM | CCn1nc(Nc2cc(-c3nc(N4CCNCC4)c4c(C5CC5)cncc4n3)ccn2)cc1C [Example 780, [4-(5-Cyclopropyl-4-piperazin-1-yl-pyrido[3,4-d]pyrimidin-2-yl)-pyridin-2-yl]-(1-ethyl-5-methyl-1H-pyrazol-3-yl)-amine]
26 | 100 to 1000 nM | CN1CCN(c2cccc(Nc3cc(-c4nc(N5CCC[C@@H](O)C5)c5c(C6CC6)cncc5n4)ccn3)n2)CC1 [Example 781, (R)-1-(5-Cyclopropyl-2-{2-[6-(4-methyl-piperazin-1-yl)-pyridin-2-ylamino]-pyridin-4-yl}-pyrido[3,4-d]pyrimidin-4-yl)-piperidin-3-ol]
27 | < 100 nM | Fc1cnc(Nc2cc(-c3nc(N4CCNCC4)c4c(C5CCC5)cncc4n3)ccn2)c(F)c1 [Example 783, [4-(5-Cyclobutyl-4-piperazin-1-yl-pyrido[3,4-d]pyrimidin-2-yl)-pyridin-2-yl]-(3,5-difluoro-pyridin-2-yl)-amine]
28 | < 100 nM | Fc1cccnc1Nc1cc(-c2nc(N3CCNCC3)c3c(C4CCC4)cncc3n2)ccn1 [Example 784, [4-(5-Cyclobutyl-4-piperazin-1-yl-pyrido[3,4-d]pyrimidin-2-yl)-pyridin-2-yl]-(3-fluoro-pyridin-2-yl)-amine]
